Data published in patent US5066585A, “Method of inhibiting fungus using novel antifungal compounds” (priority 1990, dated 1991).
Converted amounts (≈) assume the structure as drawn. Like-named read-outs stand apart in the source and are kept apart here.

Columns and labels:
murine tumors = conditions: more active than adriamycin; cited from earlier work
Solubility = type: physicochemical
[1] = system: Candida albicans, Aspergillus fumigatus, and Cladosporium spp. fungi; assay: TLC bioassay for the detection of the biological activity; type: cell-based; conditions: bands at Rf 0.48 and 0.72, CHCl3-MeOH 16:1
Description: The crude extract obtained from the mycelium was spotted on a TLC plate (5×20, […]) and developed (CHCl3 -MeOH, 16:1 v/v). The plate was then marked under UV and visible light for individual spots or regions. The spores of the agar slant culture of the test organism was suspended in 10 ml of sterile physiological saline. The growth medium containing agar was then shaken well with 50 ul of the above suspension (35-40° C.) and poured over the developed TLC plate uniformly and allowed to set. The plates were then placed in a moist chamber and incubated at 26° C. for 24 to 72 hours and the zone of inhibition was recorded for the respective spots of the plate. The test organisms were Candida albicans, Aspergillus fumigatus, and Cladosporium spp. fungi and the growth medium was potato dextrose agar (PDA, 39 g/l).

C. neoformans-G-3 = assay: MIC against C. neoformans-G-3, broth dilution; type: cell-based; conditions: G = nonencapsulated, drypasty, highly virulent strain, ca 10,000 CFU
Description: (§1) Known amounts of the purified substance were dissolved in DMSO and serial dilutions prepared in the same solvent. A 20 ul volume of each dilution was placed on the surface of Emmon's agar in petri-dishes seeded with various test strains of pathogenic and saprophytic fungi. The antibacterial activity was monitored using Muller-Hilton agar. The minimum inhibitory concentration (MIC) was determined by incorporating known amount of the DMSO dissolved purified substance into Emmon's liquid medium (same as stated earlier but devoid of agar) contained in test tubes. The tubes were inoculated with ca 2×10^3 CFU of the test organisms. The inoculated tubes were incubated at 26° C. and the results recorded after two to 5 days' depending upon the growth pattern of the test organisms (certain fungi grow faster than others). Tubes inoculated in an identical manner but devoid of the active substance served as controls.
(§2) Minimum inhibitory concentration of Spartanamycin-B against certain bacteria and fungi. (The substance was dissolved in DMSO, 20 ul of the solution was mixed with two ml of liquid Emmons medium containing ca 10,000 Colony forming Units of fungal test strains or 100,000 CFU's of bacterial test strains).

R. glutinis = assay: MIC against R. glutinis, broth dilution; type: cell-based; conditions: fungus, ca 10,000 CFU, liquid Emmons medium
Description: as §1, §2

[2] = system: Cryptococcus neoformans-N-2; assay: MIC against Cryptococcus neoformans-N-2, broth dilution; type: cell-based; conditions: N = encapsulated, mucoid strain with neurotropic tendencies, ca 10,000 CFU
Description: as §1, §2

C. neoformans serotype-D = assay: MIC against C. neoformans serotype-D, broth dilution; type: cell-based; conditions: ca 10,000 CFU, liquid Emmons medium
Description: as §1, §2

[3] = stability on standing in 2N HCl; type: physicochemical; conditions: upon standing in 2N HCl
Citrobacter species = assay: MIC against Citrobacter species; type: cell-based; conditions: bacterial strain, 100,000 CFU
Description: as §1, §2

[4] = system: Staphylococcus aureus ATCC 29213; assay: MIC against Staphylococcus aureus ATCC 29213; type: cell-based; conditions: bacterial strain, 100,000 CFU
Description: as §1, §2

Rhodotorula rubra = assay: MIC against Rhodotorula rubra, broth dilution; type: cell-based; conditions: fungus, ca 10,000 CFU, liquid Emmons medium
Description: as §1, §2

S. aureus ATCC 25923 = assay: MIC against S. aureus ATCC 25923; type: cell-based; conditions: bacterial strain, 100,000 CFU
Description: as §1, §2

A. niger = assay: MIC against A. niger, broth dilution; type: cell-based; conditions: fungus, ca 10,000 CFU, liquid Emmons medium, DMSO solution
Description: as §1, §2

Penicillium species = assay: MIC against Penicillium species, broth dilution; type: cell-based; conditions: fungus, ca 10,000 CFU, liquid Emmons medium, DMSO solution
Description: as §1, §2

A. flavus = assay: MIC against A. flavus, broth dilution; type: cell-based; conditions: fungus, ca 10,000 CFU, liquid Emmons medium, DMSO solution
Description: as §1, §2

Pseudomonas aeruginosa = assay: MIC against Pseudomonas aeruginosa; type: cell-based; conditions: bacterial strain, 100,000 CFU
Description: as §1, §2

Plebsiella pneumoniae = assay: MIC against Plebsiella pneumoniae; type: cell-based; conditions: bacterial strain, 100,000 CFU
Description: as §1, §2

Cladosporium species = assay: MIC against Cladosporium species, broth dilution; type: cell-based; conditions: fungus, ca 10,000 CFU, liquid Emmons medium, DMSO solution
Description: as §1, §2

C. neoformans serotype-C = assay: MIC against C. neoformans serotype-C, broth dilution; type: cell-based; conditions: ca 10,000 CFU, liquid Emmons medium
Description: as §1, §2

C. quilliermondii = assay: MIC against C. quilliermondii, broth dilution; type: cell-based; conditions: fungus, ca 10,000 CFU, liquid Emmons medium, DMSO solution
Description: as §1, §2

Aspergillus fumigatus = assay: MIC against Aspergillus fumigatus, broth dilution; type: cell-based; conditions: fungus, ca 10,000 CFU, liquid Emmons medium, DMSO solution
Description: as §1, §2

Candida albicans = assay: MIC against Candida albicans, broth dilution; type: cell-based; conditions: fungus, ca 10,000 CFU, liquid Emmons medium, DMSO solution
Description: as §1, §2

[5] = system: S. aureus (multiple drug resistant); assay: MIC against S. aureus (multiple drug resistant); type: cell-based; conditions: bacterial strain, 100,000 CFU
Description: as §1, §2

Escherichia coli = assay: MIC against Escherichia coli; type: cell-based; conditions: bacterial strain, 100,000 CFU
Description: as §1, §2

C. neoformans-N-3 = assay: MIC against C. neoformans-N-3, broth dilution; type: cell-based; conditions: N = encapsulated, mucoid strain with neurotropic tendencies, ca 10,000 CFU
Description: as §1, §2

fungi = conditions: comparison compounds from Streptomyces; cited from earlier work
[6] = comparison compounds; cited from earlier work
[7] = hexane, cyclohexane, water and 2N HCl

CCN[C@H]1CO[C@@H](O[C@H]2[C@H](O[C@H]3C#C/C=C\C#C[C@]4(O)CC(=O)C(NC(=O)OC)=C3/C4=C\CSSSC)O[C@H](C)[C@@H](NO[C@H]3C[C@H](O)[C@H](SC(=O)c4c(C)c(I)c(O[C@@H]5O[C@@H](C)[C@H](O)[C@@H](OC)[C@H]5O)c(OC)c4OC)[C@@H](C)O3)[C@@H]2O)C[C@@H]1OC [Calicheamicin]
activity relative to adriamycin against murine tumors (murine tumors): approximately 1000 fold

CCC1(O)CC(OC2CC(N(C)C)C(OC3CC4OC5CC(=O)C(C)OC5OC4C(C)O3)C(C)O2)c2c(cc3c(c2O)C(=O)c2c(O)ccc(O)c2C3=O)C1C(=O)OC (stereo not shown) [Spartanamicin A]
Solubility (Solubility; 1-butanol, ethanol, methanol): Sparingly soluble | Solubility (Solubility; chloroform, carbon tetrachloride, toluene, ethyl acetate, DMF, DMSO, acetonitrile, acetone and glacial acetic acid): Soluble | Solubility (Solubility; [7]): Insoluble | solubility in methanol and ethanol (Solubility): not soluble | biological activity of TLC band [1]: biologically active

CC[C@@]1(O)C[C@H](O[C@H]2C[C@H](N(C)C)[C@H](O[C@H]3C[C@H](O)[C@H](O[C@H]4CCC(=O)[C@H](C)O4)[C@H](C)O3)[C@H](C)O2)c2c(cc3c(c2O)C(=O)c2c(O)ccc(O)c2C3=O)[C@H]1C(=O)OC [Spartanamicin B]
MIC (C. neoformans-G-3): 1.0 µg/mL (≈ 1.21 µM) | MIC (R. glutinis): 0.4 µg/mL (≈ 0.483 µM) | MIC [2]: 0.8 µg/mL (≈ 0.966 µM) | Solubility (Solubility; 1-butanol, ethanol, methanol, acetonitrile): Sparingly soluble | Solubility (Solubility; chloroform, carbon tetrachloride, toluene, ethyl acetate, DMF, DMSO, acetone and glacial acetic acid): Soluble | Solubility (Solubility; [7]): Insoluble | solubility in methanol and ethanol (Solubility): not soluble | MIC (C. neoformans serotype-D): 0.8 µg/mL (≈ 0.966 µM) | stability in 2N HCl [3]: hydrolyses | MIC (Citrobacter species): not active | MIC [4]: 0.8 µg/mL (≈ 0.966 µM) | MIC (Rhodotorula rubra): 0.8 µg/mL (≈ 0.966 µM) | MIC (S. aureus ATCC 25923): 0.8 µg/mL (≈ 0.966 µM) | MIC (A. niger): 0.6 µg/mL (≈ 0.725 µM) | MIC (Penicillium species): 0.2 µg/mL (≈ 0.242 µM) | MIC (A. flavus): 0.6 µg/mL (≈ 0.725 µM) | MIC (Pseudomonas aeruginosa): 100 µg/mL (≈ 121 µM) | MIC (Plebsiella pneumoniae): 100 µg/mL (≈ 121 µM) | MIC (Cladosporium species): 0.4 µg/mL (≈ 0.483 µM) | MIC (C. neoformans serotype-C): 0.8 µg/mL (≈ 0.966 µM) | MIC (C. quilliermondii): 0.8 µg/mL (≈ 0.966 µM) | MIC (Aspergillus fumigatus): 0.4 µg/mL (≈ 0.483 µM) | MIC (Candida albicans): 0.2 µg/mL (≈ 0.242 µM) | MIC [5]: not active | MIC (Escherichia coli): not active | biological activity of TLC band [1]: biologically active | MIC (C. neoformans-N-3): 0.6 µg/mL (≈ 0.725 µM)

CCC1(O)CC(OC2CC(N(C)C)C(OC3CC(O)C(OC4CCC(=O)C(C)O4)C(C)O3)C(C)O2)c2c(cc3c(c2O)C(=O)c2c(O)ccc(O)c2C3=O)C1C(=O)OC (stereo not shown) [cinerubin A]
antifungal properties (fungi): not significantly antifungal | solubility in methanol and ethanol [6]: soluble

CCC1(O)CC(OC2CC(N(C)C)C(OC3CC4OC5CC(=O)C(C)OC5OC4C(C)O3)C(C)O2)c2c(cc3c(c2O)C(=O)c2c(O)ccc(O)c2C3=O)C1C(=O)OC (stereo not shown) [cinerubin B]
antifungal properties (fungi): not significantly antifungal | solubility in methanol and ethanol [6]: soluble
